Values quoted from earlier work, collected in patent US9439866B2, “Trazodone composition for once a day administration” (priority 2005, dated 2016).
“Also recorded” adds a separate entry of the source.

Structure (SMILES): Cl.O=c1n(CCCN2CCN(c3cccc(Cl)c3)CC2)nc2ccccn12 [trazodone]
- solubility below its pKa (acid media (stomach and upper intestines), pH below pKa): highly soluble
- solubility above its pKa (neutral and basic conditions of the lower intestine, pH above pKa): very low; also recorded: poorly soluble
